Results: US20050255458A1, “Drug discovery assays based on the biology of chronic disease” (priority 2002, published 2005)
Like-named read-outs stand apart in the source and are kept apart here.

What was measured:
[1] = system: U937; conditions: vs controls, p<0.05; cited from earlier work
[2] = system: HIV-1; test: HIV-1 DNA load change over 80 weeks (Bruisten); assay type: in vivo, human; conditions: monotherapy; ddC calculated as ddC+AZT minus AZT
[3] = system: HIV-1; test: HIV-1 DNA regression on years since seroconversion (Chun 1997); conditions: therapy including the drug; HIV-1 DNA per 10^6 resting CD4+ T-cells
[4] = system: HIV-1; set-up: key to Effect on HIV DNA: ↓↓: Two arrows indicates larger change; conditions: cited from earlier work
[5] = system: HIV-1; test: Total HIV-1 LTR DNA by PCR (Pauza 1994); conditions: scale of 1 to 5 (1 is lowest)
[6] = in vivo; cited from earlier work
[7] = system: LDLR(−/−) mice; conditions: ≈5 mg/kg/day, 18 weeks; cited from earlier work
[8] = system: TF; conditions: 0.5 mg/kg/day, cited from earlier work
[9] = system: TF; conditions: cited from earlier work
[10] = system: TF; conditions: cited from earlier work; remark: listed apart in the source
[11] = system: leukocytes; conditions: 5-20 mg/kg/day, oral; cited from earlier work
[12] = system: c-Rel/p65; conditions: cited from earlier work
[13] = system: human lymphocytes; conditions: 0.1 and 1 mM; cited from earlier work
[14] = system: leukocytes; conditions: low concentrations, 20 hours; cited from earlier work
[15] = combination treatment including the drug; cited from earlier work
[16] = system: CD18; conditions: 10^−8 M for 10 min, vs unstimulated cells; cited from earlier work
[17] = system: Lp(a); conditions: 2 g administered daily; cited from earlier work
[18] = system: NF-κB; conditions: rabbit, in vivo; cited from earlier work
[19] = molecular target: T1, ACE (Homo sapiens, UniProt P12821); set-up: randomly assigned 9,297 high-risk patients; from tissue; host or cells: patients, in vivo; conditions: cited from earlier work
T1 sequence (P12821 30-1306): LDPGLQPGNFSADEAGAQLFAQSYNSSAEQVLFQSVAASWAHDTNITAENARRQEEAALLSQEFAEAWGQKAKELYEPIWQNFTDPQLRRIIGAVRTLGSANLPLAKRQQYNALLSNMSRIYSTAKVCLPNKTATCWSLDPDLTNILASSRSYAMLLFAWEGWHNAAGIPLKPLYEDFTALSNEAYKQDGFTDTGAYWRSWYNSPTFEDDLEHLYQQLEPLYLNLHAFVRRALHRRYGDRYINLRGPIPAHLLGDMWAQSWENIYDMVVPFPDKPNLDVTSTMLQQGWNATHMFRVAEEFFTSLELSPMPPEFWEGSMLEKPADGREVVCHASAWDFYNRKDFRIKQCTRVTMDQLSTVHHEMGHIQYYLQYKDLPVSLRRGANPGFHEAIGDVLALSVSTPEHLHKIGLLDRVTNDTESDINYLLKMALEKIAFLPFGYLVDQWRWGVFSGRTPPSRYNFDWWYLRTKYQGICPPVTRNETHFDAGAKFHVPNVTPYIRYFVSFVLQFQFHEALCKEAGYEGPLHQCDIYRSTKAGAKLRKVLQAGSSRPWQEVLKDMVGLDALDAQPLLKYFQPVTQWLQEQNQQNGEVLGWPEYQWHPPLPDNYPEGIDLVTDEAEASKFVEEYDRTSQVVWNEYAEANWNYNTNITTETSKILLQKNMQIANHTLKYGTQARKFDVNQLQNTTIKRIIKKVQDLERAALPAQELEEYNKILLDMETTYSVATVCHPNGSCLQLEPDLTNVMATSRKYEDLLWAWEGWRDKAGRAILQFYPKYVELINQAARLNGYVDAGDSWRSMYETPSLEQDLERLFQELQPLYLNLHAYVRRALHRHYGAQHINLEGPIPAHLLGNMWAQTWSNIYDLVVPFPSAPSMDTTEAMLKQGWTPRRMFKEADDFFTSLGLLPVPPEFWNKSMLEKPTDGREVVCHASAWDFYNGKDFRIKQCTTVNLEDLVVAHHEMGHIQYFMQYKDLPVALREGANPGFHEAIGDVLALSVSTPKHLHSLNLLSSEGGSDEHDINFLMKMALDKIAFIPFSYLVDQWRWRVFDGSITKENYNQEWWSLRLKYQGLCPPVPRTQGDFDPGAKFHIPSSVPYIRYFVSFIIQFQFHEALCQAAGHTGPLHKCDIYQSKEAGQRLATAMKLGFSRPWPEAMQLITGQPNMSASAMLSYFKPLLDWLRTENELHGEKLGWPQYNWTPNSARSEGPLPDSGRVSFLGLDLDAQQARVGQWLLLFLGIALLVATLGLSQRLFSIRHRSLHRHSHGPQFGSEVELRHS

[20] = system: apoE(−/−) mice; conditions: ramipril 1 mg/kg/day, 10 weeks; cited from earlier work
[21] = molecular target: T1, ACE; set-up: from tissue; host or cells: patients, in vivo; conditions: 5 or 10 mg/day, 4 years, vs placebo; cited from earlier work
[22] = molecular target: T1, ACE; set-up: randomly assigned 9,297 high-risk patients; from tissue; host or cells: patients, in vivo; conditions: cited from earlier work; remark: listed apart in the source
[23] = system: TF mRNA; conditions: obese mice, 10 to 20 weeks of age; cited from earlier work
[24] = system: rhesus monkeys; conditions: atherogenic diet; cited from earlier work
[25] = system: rabbits; conditions: atherogenic diet; cited from earlier work
[26] = system: U251.3 glioma cells; conditions: soluble, 100 μg/ml; fibronectin 10 μg/ml; 24 and 48 hours; cited from earlier work
[27] = system: neutrophils; conditions: cited from earlier work
[28] = system: NF-κB; conditions: cited from earlier work
[29] = system: apoE(−/−) mice; conditions: 500 or 1,000 ng/min/kg, 1 month; cited from earlier work
[30] = system: apolipoprotein E deficient mice; conditions: 0.1 ml of 10^−7M per mouse, intraperitoneally, once a day for 30 days; cited from earlier work
[31] = system: TF; conditions: in vitro treatment; cited from earlier work

CC(C)CCC[C@@H](C)[C@H]1CC[C@H]2[C@@H]3C(=O)C=C4C[C@@H](O)CC[C@]4(C)[C@H]3CC[C@]12C [7-ketocholesterol]
GSH content [1]: lower GSH content

Cc1cn([C@H]2C[C@H](N=[N+]=[N-])[C@@H](CO)O2)c(=O)[nH]c1=O [AZT, Zidovudine]
mean log change from baseline in viral DNA over all time points [2]: −0.05 | average difference between expected and observed viral DNA copies [3]: +317 copies | change in viral DNA ([4]; week 80): increase | average ranking of viral DNA load [5]: 2.74

CNCCC(Oc1ccc(C(F)(F)F)cc1)c1ccccc1 (stereo not drawn) [Fluoxetine]
effect on body weight [6]: ^IIFluoxetine produces a transient weight loss leading to gain in body weight in the long term.

CCCCNC(=O)NS(=O)(=O)c1ccc(C)cc1 [Tolbutamide]
atherosclerosis [6]: ^IIITolbutamide induced atherosclerosis.

CC(=O)Oc1ccccc1C(=O)O [aspirin, Acetylsalicylic Acid]
decrease in NF-κB binding activity in the aortas [7]: 34% | decrease in the positive area for macrophages [7]: 57% | increase in the positive area for SMC [7]: 77% | increase in TF concentration compared to non-smoker mice (Western blotting) [8]: 1.3±0.17 fold | TF immunoreactive area ([8]; smoker mice, 8 weeks): 6.5±4.5% | LPS-induced increase in TF mRNA and protein level [9]: dose-dependently inhibited | TF staining area in plaque ([10]; non-smokers): 2.0±2% | TF staining area in plaque ([10]; smokers): 4.4±4% | increase of leukocyte migration relative to control values [11]: 20-70% | LPS-induced translocation of c-Rel/p65 [12]: inhibited the LPS-induced translocation of c-Rel/p65 | migration of human lymphocytes [13]: stimulated migration of human lymphocytes | cell migration [14]: increased cell migration

Nc1ccn([C@H]2CC[C@@H](CO)O2)c(=O)n1 [ddC, zalcitabine]
mean log change from baseline in viral DNA over all time points [2]: −0.1546 | association with fat redistribution (FR) [15]: significantly associated with the absence of FR | average ranking of viral DNA load [5]: 2.71

OC[C@@H]1CC[C@H](n2cnc3c(O)ncnc32)O1 [ddI, 2′,3′-dideoxyinosine]
average difference between expected and observed viral DNA copies [3]: −828 copies | Effect on HIV DNA ([4]; in vivo): ↓↓ | association with fat redistribution (FR) [15]: significantly associated with absence of FR | average ranking of viral DNA load [5]: 2.25

CSCC[C@H](NC=O)C(=O)N[C@@H](CC(C)C)C(=O)N[C@@H](Cc1ccccc1)C(=O)O [fMLP, N-formylmethionyl-leucyl-phenylalanine]
increase in CD18 surface membrane concentration [16]: 4 fold

O=C(O)c1cccnc1 [niacin]
decrease of Lp(a) [17]: 27%

CCOC(=O)[C@H](CCc1ccccc1)N[C@@H](C)C(=O)N1Cc2ccccc2C[C@H]1C(=O)O [quinapril]
NF-κB activity in atherosclerotic vessels [18]: decreased the NF-κB activity

CCOC(=O)[C@H](CCc1ccccc1)N[C@@H](C)C(=O)N1[C@H](C(=O)O)C[C@@H]2CCC[C@@H]21 [ramipril]
progression slope of the mean maximum carotid intimal medial thickness (IMT) ([19]; 10 mg/day, 4.5 years): 0.0137±0.0024 mm/year | decrease of progression of carotid intima media thickness ([19]; at 4.5 years): 0.008 mm per year | lesion area [20]: 6,679±978 μm^2 | changes in thickness of the common carotid artery wall, or carotid plaque height [21]: no significant difference | rate of death from cardiovascular causes ([22]; 10 mg/day, average follow up 4.5 years): 6.1% | rate of cardiac arrest ([22]; 10 mg/day): 0.8% | rate of complications related to diabetes ([22]; 10 mg/day): 6.4% | rate of death from any cause ([22]; 10 mg/day): 10.4% | rate of heart failure ([22]; 10 mg/day): 9.1% | rate of myocardial infarction ([22]; 10 mg/day): 9.9% | rate of revascularization procedures ([22]; 10 mg/day): 16.3% | rate of stroke ([22]; 10 mg/day): 3.4% | RR of cardiac arrest ([22]; vs placebo): 0.62 | RR of complications related to diabetes ([22]; vs placebo): 0.84 | RR of death from any cause ([22]; vs placebo): 0.84 | RR of death from cardiovascular causes ([22]; vs placebo): 0.74 | RR of heart failure ([22]; vs placebo): 0.77 | RR of myocardial infarction ([22]; vs placebo): 0.80 | RR of revascularization procedures ([22]; vs placebo): 0.85 | RR of stroke ([22]; vs placebo): 0.68

CCOC(=O)[C@H](CCc1ccccc1)N[C@H]1CS[C@H](c2cccs2)CN(CC(=O)O)C1=O [temocapril]
TF mRNA in cardiac tissue [23]: attenuated the increase in TF mRNA

CN1CCN(CCCN2c3ccccc3Sc3ccc(C(F)(F)F)cc32)CC1 [trifluoperazine]
rate of lesion formation [24]: decreased the rate of lesion formation | rate of lesion formation [25]: decreased the rate of lesion formation

TNC: a large ECM glycoprotein secreted by a variety of cells
migration distance [26]: significantly increased migration distance

angiotensin II (DRVYIHPF; Angiotensin-2; UniProt P01019 25-32, looked up)
velocity ([27]; concentration of 10^−11): 88 % of maximum velocity | concentration of peak velocity ([27]; neutrophils): 10^−10 | NF-κB activation [28]: increased NF-κB activation | development of AAA [29]: promotes the development of AAA | rate of atherosclerotic lesion formation in the thoracic aorta [29]: increases the rate of atherosclerotic lesion formation | lesion area [30]: 5,000 μm^2 | TF antigen and mRNA [31]: dose-depended increase in TF antigen and mRNA
